The values that follow come from article PMC4947679, “Quantitative In Vitro and In Vivo Evaluation of Intestinal and Blood-Brain Barrier Transport Kinetics of the Plant N-Alkylamide Pellitorine” (BioMed Research International, 2016).

Like-named read-outs stand apart in the source and are kept apart here.

A short description of data set [1]: Oral gavage pharmacokinetic experiment with rats. The following applies: rat. It counts as in vivo, Wistar rats. The protocol: Male and female Wistar rats weighing approximately 220 g were obtained from Bharat Serum and Vaccines Pvt. Ltd., Thane, India (registration number 103/99/CPCSEA) and were housed at CU Shah College of Pharmacy, SNDT Women's University, Santacruz, Mumbai, India (registration number 39/99/CPCSEA) where the experiments were carried out. Rats of 7-8 weeks of age were fasted overnight and used for the experiments.
A pellitorine dose solution was prepared using the Anacyclus pyrethrum extract. To the rats, 1.5 mL of a 0.73 mg pellitorine/g dose solution in 10 : 20 : 30 : 40 (w/w/w/w) EtOH : PG : Vit E-TPGS : PEG 400 was administered using a gavage needle (stainless steel, length of 3 inches, and 2.5 mm internal diameter). As blank, a solution containing EtOH, PG, Vit E-TPGS, and PEG without pellitorine was used. Each dose solution was orally administered to three female and three male rats. 1.5 mL blood was collected from the retro orbital vein at 1, 2, 3, 4, 6, and 8 h after administration of the dose solution and was centrifuged for 20 min at room temperature. Thereafter, the serum samples were immediately frozen at −80°C until bioanalysis. The animals were sacrificed at the end of the experiment by CO2 inhalation. Using GraphPad software (La Jolla, USA), the elimination rate constant k e (h^−1) is calculated using the following equation of a one-compartment model: C(t) = C 0 × e ^−ke×t, in which C(t) (ng/mL) is the concentration of pellitorine at time t (h) and C 0 the concentration of pellitorine at time t = 0 (ng/mL). The elimination half-life t 1/2,e (h) is calculated as ln(2)/k e.

Data set [2] in a line: Capillary depletion experiment in mice. In kind it is in vivo, ICR-CD-1 mice. The following applies: 10 min after intravenous injection; for Kp at 10 min: female, ICR-CD-1, mouse, 36 μg/mouse. How it is done: A capillary depletion experiment was performed to distinguish the transport of pellitorine into the brain, represented by the parenchyma, and part of pellitorine which is trapped by the endothelial cells of the brain, represented by the capillaries. A method of Triguero et al. was used, which was modified by Gutierrez et al.. The mice were anesthetized intraperitoneally with 40% (w/V) urethane solution (3 g/kg). Thereafter, 20 μL of the 1.8 mg/mL pellitorine dose solution was injected into the jugular vein. Ten min after injection, blood was collected from the abdominal aorta and serum was obtained by centrifuging the blood at 10 000 ×g during 15 min at 21°C. Then, after removing the skin of the mice's chest, the aorta is clamped, the jugular veins are severed, and the brain is immediately perfused manually with 20 mL of Lactated Ringer's solution. The mice are decapitated, and the brains are isolated, weighed, and put into tubes (LoBind Eppendorf), to which 525 μL ice-cold capillary buffer (10 mM HEPES, 141 mM NaCl, 4 mM KCl, 2.8 mM CaCl2, 1 mM MgSO4, 1 mM NaH2PO4, and 10 mM D-glucose adjusted to pH 7.4) was added. The tubes (LoBind Eppendorf) were homogenized. Next, 1000 μL of 26% ice-cold dextran solution in capillary buffer was added and vortexed and the tubes were subsequently centrifuged at 20 000 ×g for 60 min at 4°C. Parenchyma and fat tissue (supernatant) were transferred into separate tubes (LoBind Eppendorf) and weighed. The capillaries (pellet) were kept in the original tube. The sample preparation of the pellet and the supernatant is the same sample preparation method as used for the mice brains and mice serum, respectively, as described in Section 2.6.
The distribution in the brains was calculated as follows: (5) Fraction%=Mtissue/Mcapillaries+Mparenchyma×100 in which M tissue is the amount of pellitorine in the capillaries and parenchyma, M capillaries the amount of pellitorine in the capillaries, and M parenchyma the amount of pellitorine in the parenchyma. The capillary depletion experiment was performed in duplicate and mean values are reported.

Data set [3] in a line: Brain-to-blood transport after intracerebroventricular injection in mice. It counts as in vivo, ICR-CD-1 mice. How it is done: To evaluate the efflux of pellitorine out of the brain into the blood, a previously described in vivo method was used. Briefly, the ICR-CD-1 mice were anesthetized with 40% (w/V) urethane solution (3 g/kg). Then, the skin of the skull was removed and a hole was made into the lateral ventricle using a 22 G needle marked with tape at 2 mm at the following coordinates: 1 mm lateral and 0.34 mm posterior to the bregma. Using a syringe pump (KDS100, KR analytical, Cheshire, UK), 1 μL of the 1.8 mg/mL pellitorine dose solution as used for the blood-to-brain influx experiment was injected intracerebroventriculary (ICV) at a speed of 360 μL/h for 10 s. […] Just before decapitation, blood was collected from the abdominal aorta and serum was obtained by centrifuging the blood at 10 000 ×g during 15 min at 21°C. Thereafter, brains were collected. The natural logarithm of the pellitorine concentration in brain (ng/g) was plotted versus time. The efflux rate constant k out (min^−1) is obtained from the negative value of the slope of the linear regression, applying first-order kinetics. From k out, the efflux brain half-life (t 1/2,brain) (min) is calculated as follows: t 1/2,brain = ln(2)/k out.

Details of data set [4]: method as in PMID 24055064. The conditions noted are these: cited from earlier work.
For the next data set, the system named is fatty acid uptake. Set-up: method as in PMID 25422952. The following applies: in vitro; cited from earlier work.

As a reminder, the log P is the decadic logarithm of the partition coefficient of the neutral form, usually between octanol and water. Regarding `CCCCC/C=C/C=C/C(=O)NCC(C)C` [pellitorine, deca-2E,4E-dienoic acid isobutylamide], the k el in data set [1] (both sexes, Wistar, serum, po, 5 mg pellitorine/kg, oral gavage, 5 mg pellitorine/kg (Anacyclus pyrethrum extract dose solution), one-compartment model, read-out: serum elimination rate constant k e (converted)) is 8.33e-05 s⁻¹. Besides, the half-life in data set [1] (both sexes, Wistar, serum, oral gavage, 5 mg pellitorine/kg, one-compartment model, read-out: elimination half-life t 1/2,e (converted)) was 2.46 h; in data set [3] (female, ICR-CD-1, mouse, icv or intrathecal, 1.8 μg/mouse, read-out: efflux brain half-life t 1/2,brain) it was 0.23 h. Moreover, in data set [1] (oral administration of 5 mg pellitorine/kg), the maximum serum concentration amounted to 26 ng/mL. The “serum elimination rate constant k e” value in data set [1] (oral gavage, 5 mg pellitorine/kg (Anacyclus pyrethrum extract dose solution), one-compartment model) was 0.28 h⁻¹. For the same molecule, the “fraction in brain capillaries” value in data set [2] (mean of duplicate) is listed as 3%. Besides, in data set [2] (mean of duplicate), the “fraction in brain parenchyma” value was 97%. In addition, the Kp at 10 min was 0.01 in data set [2] (brain capillaries (relative to serum), read-out: brain capillaries, brain/serum ratio) and 0.347 in data set [2] (brain parenchyma (relative to serum), read-out: brain parenchyma, brain/serum ratio). Further, the “efflux transfer constant k out” value in data set [3] stood at 0.05 min⁻¹. For the same molecule, the “log P” value in data set [4] is on record as 3.65. The fatty acid uptake result in the data set on fatty acid uptake is “reduces fatty acid uptake”.
